This is an account of results in PubChem BioAssay (NCI).

What all share (assay): NCI tumour cell line growth inhibition, 48 h
Test [1] deals with CAKI-1 renal.
For test [2], the system named is CCRF-CEM leukemia.
In test [3] the test system is DMS 114 small cell lung.
The subject of test [4] is K-562 leukemia.
The test system of test [5] is NCI-H522 lung.
In test [6] the test system is OVCAR-4 ovarian.
The subject of test [7] is RPMI-8226 leukemia.
Test [8] deals with UACC-257 melanoma.
For test [9], the system named is SNB-78 CNS.
In test [10] the test system is T-47D breast.

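48-hour exposure; five concentrations; linearly interpolated endpoints. GI50: concentration for 50% inhibition of growth. Definition used: TGI = concentration required for complete inhibition of growth.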

`CC1(C)CCc2cc3c(cc2O1)OCC1c2cc4c(cc2OC31)OCO4` (stereo not drawn): the TGI in test [1], in test [2], in test [3], in test [4], in [5] and in [6] was greater than 100 µM throughout. For the same compound, the TGI in test [7] and in [8] was greater than 100 µM in each case.

Regarding `COC(=O)C1=C(C(=O)OC)C23CC1C1C(C(=O)OC)=C(C(=O)OC)C12C1C=CC3C2C(=O)OC(=O)C21` (stereo not drawn), the TGI is greater than 100 µM in [2]; 80.3 µM in [3]; greater than 100 µM in test [4]; 63.5 µM in [5]; greater than 100 µM in [6]; greater than 100 µM in test [7]. Besides, the TGI in test [9] and in [8] was greater than 100 µM throughout.

In the case of `CC(=O)O[C@]1(C)OC(=O)[C@@H](C)N1[N+](=O)[O-]`, the TGI in test [2], in [3], in test [4], in [5], in test [6] and in test [7] was greater than 100 µM throughout. The TGI in test [9] and in [8] was greater than 100 µM in each case.

For the compound `O=C1c2ccccc2C(=O)c2c(NCCNCCO)ccc(O)c21`, the TGI in test [1] is 11.5 µM; in test [2] it was 17.3 µM; in [3], 17.4 µM; in test [4], greater than 100 µM; in [5] it was 11.8 µM; in test [6], 6.53 µM. In addition, the TGI in test [7] came out at 11.7 µM; in test [9] it was 20.2 µM; in test [8], 13.5 µM.

In the case of `NNC(=S)N/N=C(/C(=O)Nc1cc(Cl)ccc1Cl)C1C(=O)Nc2ccccc2S1=O` (stereo not drawn), the TGI in test [1], in [2], in test [3], in test [4], in test [5] and in test [6] was greater than 100 µM throughout. The TGI in test [9] and in [8] was greater than 100 µM each time.

Turning to `CCOC(=O)C1=C(O)CSC1=Nc1ccccc1`, the TGI in test [1], in test [4], in test [5], in test [6], in test [7] and in test [9] was greater than 100 µM each time. For the same compound, in test [8], the TGI is greater than 100 µM.

Regarding `O=c1cccccc1NCCCCCCNc1cccccc1=O`, the TGI in test [1], in test [2], in [3], in [4], in [5] and in test [6] was greater than 100 µM in each case. The TGI in test [7], in [9] and in test [8] was greater than 100 µM each time.

Regarding `COc1ccc2c(c1)[n+]([O-])c(-c1ccccc1)c(N)[n+]2[O-]`, the TGI in test [1] is 92.3 µM; in test [2] it was greater than 100 µM; in test [3], 79.2 µM; in [4] it was greater than 100 µM; in test [5] it was 34.4 µM; in test [6] it was greater than 100 µM. Further, the TGI was greater than 100 µM in [7], greater than 100 µM in test [9] and 71.6 µM in test [8].

On to `O=C1OCCC1C(O)C1c2ccccc2-c2ccccc21` (stereo not drawn), for which the TGI in test [1], in [2], in test [3], in test [4], in [5] and in test [6] was greater than 100 µM throughout. The TGI in [7], in test [9] and in test [8] was greater than 100 µM in each case.

For `COc1ccc(C(=O)C(C(=O)C(=O)Nc2ccc(Cl)c(Cl)c2)c2ccc(OC)cc2)cc1` (stereo not drawn), the TGI in [1], in test [3], in [4], in test [6], in test [7] and in [9] was greater than 100 µM each time. Besides, in test [8], the TGI is greater than 100 µM.

As to `O=c1c2ccccc2n2n1CC(O)C2` (stereo not drawn), the TGI in test [1], in test [2], in test [4], in [5], in test [6] and in test [7] was greater than 100 µM throughout. The TGI in test [9], in test [10] and in [8] was greater than 100 µM throughout. Besides, the GI50 in [10] is greater than 100 µM.

`COc1ccc(N=Nc2c(-c3ccccc3)nn(C(=O)CC(=O)Nc3cccc(Cl)c3)c2-c2ccccc2)cc1`: the TGI in test [1], in [2], in test [3], in test [4], in [5] and in test [6] was greater than 100 µM each time. Besides, the TGI in test [7] and in test [8] was greater than 100 µM in each case.

As to `CC(C)(C)CC(C)(C)c1cc2c(O)c(c1)Cc1cc(C(C)(C)CC(C)(C)C)cc(c1O)Cc1cc(C(C)(C)CC(C)(C)C)cc(c1O)Cc1cc(C(C)(C)CC(C)(C)C)cc(c1O)Cc1cc(C(C)(C)CC(C)(C)C)cc(c1O)Cc1cc(C(C)(C)CC(C)(C)C)cc(c1O)C2`, the TGI in test [2], in test [3], in [4], in test [5], in [6] and in test [7] was greater than 100 µM each time. For the same compound, the TGI in [9] and in [8] was greater than 100 µM throughout.

Take `N#Cc1ccc(N2Cc3ccccc3OC3=C2C(=O)c2c(O)ccc(O)c2C3=O)cc1`: the GI50 in test [1] was 0.0992 µM; in test [2], 0.0556 µM; in [4] it was 0.071 µM; in test [5], 0.0336 µM; in [6], 0.216 µM; in test [7], 0.261 µM. Besides, the GI50 is 0.175 µM in test [10] and 0.258 µM in [8]. In addition, the TGI is 0.366 µM in [1]; 0.391 µM in [2]; 0.162 µM in test [5]; 0.793 µM in test [6]; 1.31 µM in test [7]; 0.487 µM in test [10]. The compound further returned a TGI in test [8] of 0.818 µM.

Regarding `CCOC(=O)/C=C/c1cc2cc(-c3csc4ccccc34)ccc2[nH]1`, the GI50 in test [1] was 3.13 µM; in test [2] it was 3.04 µM; in [4], 2.09 µM; in [5] it was 4.19 µM; in [6], 7.1 µM; in test [7], 2.87 µM. In addition, the GI50 in test [10] is 4.45 µM; in test [8] it was 12.6 µM. Also, the TGI is 15.2 µM in test [1]; 11.4 µM in [2]; 10.3 µM in test [4]; 17 µM in test [5]; 19.8 µM in [6]; 12.3 µM in [7]. Moreover, the TGI was determined as 18 µM in [10] and 25.2 µM in test [8].

`CC(=O)c1cc2c(cc1Nc1c3ccccc3nc3occ(Cl)c13)OCO2`: the GI50 in [1] is 0.085 µM; in test [2], 0.0468 µM; in test [4] it was 0.037 µM; in test [5], 0.0402 µM; in test [6] it was 82.9 µM; in [7], 0.0539 µM. For the same compound, in test [8], the GI50 was greater than 100 µM. In addition, the TGI is greater than 100 µM in test [1]; 0.291 µM in test [2]; greater than 100 µM in test [4]; 1.46 µM in test [5]; greater than 100 µM in test [6]; 0.139 µM in test [7]. Also, the TGI in [10] and in [8] was greater than 100 µM throughout.

As to `O=C(Nc1ccc(Cl)cc1F)c1cc(I)ccc1O`, the GI50 in [1] is 1.28 µM; in test [2] it was 2.78 µM; in test [4], 1.09 µM; in test [5] it was 1.14 µM; in [6], 2.04 µM; in test [7] it was 0.737 µM. Besides, the GI50 is 1.44 µM in [10] and 0.812 µM in [8]. The TGI was 5.73 µM in test [1]; 9.77 µM in test [2]; greater than 100 µM in test [4]; 10.5 µM in test [5]; 15.5 µM in test [6]; 5.01 µM in test [7]. Besides, the results for the TGI in [10] and in test [8] were 6.3 µM and 6.64 µM, respectively.

As for `CCN1C(=O)NC(=O)C(C)(N2C(=O)c3c(F)c(F)c(F)c(F)c3C2=O)C1=O` (stereo not drawn), the GI50 in test [1] is 1.94 µM; in [2], 1.89 µM; in test [4], 1.66 µM; in [5], 1.66 µM; in test [6], 2.44 µM; in [7], 1.65 µM. Further, the values for the GI50 in test [10] and in test [8] were 3.42 µM and 4.26 µM, respectively. Further, the TGI amounted to 4.86 µM in test [1]; 4.54 µM in test [2]; 3.71 µM in test [4]; 3.97 µM in test [5]; 6.31 µM in test [6]; 6.53 µM in test [7]. In addition, the TGI in test [10] was 11.9 µM; in test [8] it was 14 µM.

On to `C[C@]12CCc3nonc3C1CC[C@@H]1C2CC[C@]2(C)NC(=O)CCC12` (stereo partly drawn), for which the TGI in test [1], in [2], in test [4], in test [5], in [6] and in test [7] was greater than 100 µM throughout. Also, the TGI in [9] and in test [8] was greater than 100 µM each time.

As for `O=C(CN1CCN(c2ccc(Cl)cc2)CC1)N1CCN(c2nnc(-c3ccc(Cl)cc3)c(-c3ccc(Cl)cc3)n2)CC1`, the GI50 in [1] is 52.6 µM; in [2], 16.5 µM; in [4], greater than 100 µM; in test [5], 18.2 µM; in [6], greater than 100 µM; in test [7] it was greater than 100 µM. Also, the GI50 in test [10] is 10.8 µM; in [8] it was greater than 100 µM. The TGI in test [1] is greater than 100 µM; in test [2], 73.9 µM; in test [4], greater than 100 µM; in test [5], 46.9 µM; in [6] it was greater than 100 µM; in test [7] it was greater than 100 µM. Also, the TGI in test [10] and in test [8] was greater than 100 µM in each case.

On to `O=C1N(c2ccccc2)C(=O)C2(SC=NN2Cc2ccccc2)N1c1ccccc1` (stereo not drawn), for which the TGI in test [1], in test [2], in test [3], in [4], in test [5] and in test [6] was greater than 100 µM in each case. Further, the TGI in test [9] and in [8] was greater than 100 µM throughout.

Regarding `O=C(c1cc2ccccc2o1)N(Cc1ccccc1)c1ccccc1`, the TGI in test [1] worked out at 55.5 µM; in test [2], 37.6 µM; in [3], 44.2 µM; in test [4], 40 µM; in test [5] it was 33.9 µM; in [7] it was 49.8 µM. Moreover, the results for the TGI in test [9] and in test [8] were greater than 100 µM and 41.4 µM, respectively.

`CC/C=C\C/C=C\C[C@H](O)C/C=C1/C(=O)C=C[C@@H]1C/C=C\CCCC(=O)O`: the GI50 in test [1] is 6.56 µM; in test [2] it was 2.17 µM; in test [4], 3.17 µM; in test [5] it was 1.71 µM; in test [6], 4.15 µM; in test [7] it was 2.63 µM. The figures for the GI50 in [10] and in test [8] were 3.88 µM and 5.35 µM, respectively. Further, the TGI in test [1] was 21.4 µM; in [2], 14 µM; in [4], greater than 100 µM; in [5] it was 3.78 µM; in [6] it was 20 µM; in test [7] it was 12.1 µM. Moreover, the figures for the TGI in test [10] and in [8] were 20.1 µM and 19.2 µM, respectively.

Consider `COC1CCC(O)C(/C=C/[N+](=O)[O-])C1` (stereo not drawn), for which the TGI in test [1] was 38.4 µM; in [2] it was greater than 100 µM; in test [4], 22 µM; in test [5], 23.2 µM; in test [6] it was 28.4 µM; in test [7], 4.2 µM. The TGI in test [10] turned out to be 44.8 µM; in test [8] it was 5.48 µM.

For `CC(=O)c1cccc(NC(=O)C(=O)C(C2OC(=O)c3ccccc32)[N+](=O)[O-])c1` (stereo not drawn), the TGI in test [1], in test [2], in [3], in [4], in test [6] and in test [7] was greater than 100 µM each time. Moreover, the TGI in test [9] and in test [8] was greater than 100 µM throughout.
